Read-outs that look alike come from different tables or passages of the source.
Key:
SCD1 = assay: Measurement of SCD1 expression in SZ95-SCD1-HiBit cells (HiBiT assay); assay type: cell-based; settings: Homo sapiens; for EC50: read-out: HiBit EC50
SZ95 sebocytes = assay: Sentinel Lipid Assay (SLA), desaturation index in SZ95 sebocytes; assay type: cell-based; settings: Homo sapiens, 72 h; for EC50: read-out: SLA EC50
How it was run: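 SZ95 human sebocytes on fibronectin-coated plates, dosed 72 h at 37 °C with 1:3 dilutions from 10 μM; lipids extracted with deuterated triglyceride internal standards and quantified by LC-MS/MS (MRM) as 11 sentinel lipids. Desaturation index from elastic-net coefficients, normalized to DMSO; Amax relative to a reference LXR agonist.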

[1] = 48 h, normalized Amax based on the reference compound Amax of 100%, read-out: HiBit Normalized Amax
[2] = SZ95-SCD1-HiBit cells, 48 h, SCD1 protein production, luminescence, initial dilution 1:3 in DMSO
[3] = SZ95-SCD1-HiBit cells, 48 h, compared to reference compound, read-out: HiBit Amax
[4] = normalized Amax based on the reference compound Amax of 100%, read-out: SLA Normalized Amax
[5] = SZ95 cells, desaturation index, lowest dose used 4.6 nM
[6] = SZ95 cells, compared to reference compound, read-out: SLA Amax

SMILES	Emax (SCD1; [1]) [%]	EC50 (SCD1; [2]) [nM]	Emax (SCD1; [3]) [%]	Emax (SZ95 sebocytes; [4]) [%]	EC50 (SZ95 sebocytes; [5]) [nM]	Emax (SZ95 sebocytes; [6]) [%]	Emax (SCD1; 48 h, read-out: HiBit Amax) [%]	EC50 (SCD1; 48 h) [nM]	Emax (SCD1; 48 h, read-out: HiBit Normalized Amax) [%]	Emax (SZ95 sebocytes; read-out: SLA Amax) [%]	EC50 (SZ95 sebocytes) [nM]	Emax (SZ95 sebocytes; read-out: SLA Normalized Amax) [%]	EC50 (SCD1; footnote a: initial dilution for the compound 1:100 in assay medium rather than 1:3 in DMSO) [nM]
CC(C)CS(=O)(=O)c1ccccc1Oc1ccc(-c2noc(CN3C(=O)N(CCC4(O)CCOCC4)C(C)(C)C3=O)n2)cc1C(F)(F)F [Compound 6, 1-(2-(4-hydroxytetrahydro-2H-pyran-4-yl)ethyl)-3-((3-(4-(2-(isobutylsulfonyl)phenoxy)-3-(trifluoromethyl)phenyl)-1,2,4-oxadiazol-5-yl)methyl)-5,5-dimethylimidazolidine-2,4-dione]	69.8	43.6	66.4	101	37.5	96.7	–	–	–	–	–	–	–
O=C(O)Cc1cccc(OCCCN(Cc2cccc(C(F)(F)F)c2Cl)CC(c2ccccc2)c2ccccc2)c1 [Reference Compound, 2-(3-(3-((2-chloro-3-(trifluoromethyl)benzyl)(2,2-diphenylethyl)amino)propoxy)phenyl)acetic acid, reference compound]	100	65.4	95.1	100	87.3	96	–	–	–	–	–	–	–
CC(C)CS(=O)(=O)c1ccccc1Oc1ccc(-c2noc(CN3C(=O)N(CCN4CCOCC4)C4(CCN(C(=O)c5cncnc5)CC4)C3=O)n2)cc1C(F)(F)F [Compound 29, 3-((3-(4-(2-(isobutylsulfonyl)phenoxy)-3-(trifluoromethyl)phenyl)-1,2,4-oxadiazol-5-yl)methyl)-1-(2-morpholinoethyl)-8-(pyrimidine-5-carbonyl)-1,3,8-triazaspiro[4.5]decane-2,4-dione]	87.7	0.796	83.4	135	≤ 4.6	129	–	–	–	–	–	–	–
CC(O)CS(=O)(=O)c1ccccc1Oc1ccc(-c2noc(CN3C(=O)N(CCN4CCOCC4)C(C)(C)C3=O)n2)cc1C(F)(F)F (stereo not drawn) [Compound 52, 3-((3-(4-(2-((2-hydroxypropyl)sulfonyl)phenoxy)-3-(trifluoromethyl)phenyl)-1,2,4-oxadiazol-5-yl)methyl)-5,5-dimethyl-1-(2-morpholinoethyl)imidazolidine-2,4-dione]	79.5	2.91	75.6	119	≤ 4.6	114	–	–	–	–	–	–	–
CC1(C)C(=O)N(Cc2nc(-c3ccc(OCC(C)(C(F)(F)F)C(F)(F)F)c(C(F)(F)F)c3)no2)C(=O)N1CCC1CCOCC1 [Compound 1, 5,5-dimethyl-1-(2-(tetrahydro-2H-pyran-4-yl)ethyl)-3-((3-(4-(3,3,3-trifluoro-2-methyl-2-(trifluoromethyl)propoxy)-3-(trifluoromethyl)phenyl)-1,2,4-oxadiazol-5-yl)methyl)imidazolidine-2,4-dione]	91.7	0.496	87.2	87.1	≤ 4.6	83.6	–	–	–	–	–	–	–
CC1(C)C(=O)N(Cc2nc(-c3ccc(Oc4ccccc4S(=O)(=O)CC4CCCO4)c(C(F)(F)F)c3)no2)C(=O)N1CCN1CCOCC1 (stereo not drawn) [Compound 64, 5,5-dimethyl-1-(2-morpholinoethyl)-3-((3-(4-(2-(((tetrahydrofuran-2-yl)methyl)sulfonyl)phenoxy)-3-(trifluoromethyl)phenyl)-1,2,4-oxadiazol-5-yl)methyl)imidazolidine-2,4-dione]	–	–	–	–	–	–	97.9	0.063	103	154	≤ 4.6	160	–
CC(C)N(C)S(=O)(=O)c1ccccc1Oc1ccc(-c2noc(CN3C(=O)N(CCC4CCOCC4)C(C)(C)C3=O)n2)cc1C(F)(F)F [Compound 5, 2-(4-(5-((4,4-dimethyl-2,5-dioxo-3-(2-(tetrahydro-2H-pyran-4-yl)ethyl)imidazolidin-1-yl)methyl)-1,2,4-oxadiazol-3-yl)-2-(trifluoromethyl)phenoxy)-N-isopropyl-N-methylbenzenesulfonamide]	87.7	0.056	83.4	152	≤ 4.6	146	–	–	–	–	–	–	–
CCCC(=O)N1CCC2(CC1)C(=O)N(Cc1nc(-c3ccc(Oc4ccccc4S(=O)(=O)CC(C)C)c(C(F)(F)F)c3)no1)C(=O)N2CCN1CCOCC1 [Compound 35, 8-butyryl-3-((3-(4-(2-(isobutylsulfonyl)phenoxy)-3-(trifluoromethyl)phenyl)-1,2,4-oxadiazol-5-yl)methyl)-1-(2-morpholinoethyl)-1,3,8-triazaspiro[4.5]decane-2,4-dione]	73.1	0.616	69.5	122	17.2	117	–	–	–	–	–	–	–
CC(C)CS(=O)(=O)c1ccccc1Oc1ccc(-c2noc(CN3C(=O)N(CCN4CCOCC4)C4(CCNCC4)C3=O)n2)cc1C(F)(F)F [Compound 9, 3-((3-(4-(2-(isobutylsulfonyl)phenoxy)-3-(trifluoromethyl)phenyl)-1,2,4-oxadiazol-5-yl)methyl)-1-(2-morpholinoethyl)-1,3,8-triazaspiro[4.5]decane-2,4-dione]	98.1	3.3	93.3	147	≤ 4.6	142	–	–	–	–	–	–	–
CC1(C)NC(=O)N(Cc2nc(-c3ccc(Oc4ccccc4C(F)(F)F)c(C(F)(F)F)c3)no2)C1=O [Compound 71, 5,5-dimethyl-3-((3-(3-(trifluoromethyl)-4-(2-(trifluoromethyl)phenoxy)phenyl)-1,2,4-oxadiazol-5-yl)methyl)imidazolidine-2,4-dione]	68.7	–	65.3	51.9	> 10000	49.8	–	–	–	–	–	–	139
CC(C)CS(=O)(=O)c1ccccc1Oc1ccc(-c2noc(CN3C(=O)N(CCN4CCOCC4)C4(CCN(C(=O)C5CCN(C)CC5)CC4)C3=O)n2)cc1C(F)(F)F [Compound 33, 3-((3-(4-(2-(isobutylsulfonyl)phenoxy)-3-(trifluoromethyl)phenyl)-1,2,4-oxadiazol-5-yl)methyl)-8-(1-methylpiperidine-4-carbonyl)-1-(2-morpholinoethyl)-1,3,8-triazaspiro[4.5]decane-2,4-dione]	113	8.53	107	121	≤ 4.6	116	–	–	–	–	–	–	–
O=C1N(Cc2nc(-c3ccc(Oc4ccccc4C(F)(F)F)c(C(F)(F)F)c3)no2)C(=O)C2(CCN(C3CCC3)CC2)N1CCN1CCOCC1 [Compound 13, 8-cyclobutyl-1-(2-morpholinoethyl)-3-((3-(3-(trifluoromethyl)-4-(2-(trifluoromethyl)phenoxy)phenyl)-1,2,4-oxadiazol-5-yl)methyl)-1,3,8-triazaspiro[4.5]decane-2,4-dione]	82.2	0.102	78.2	94.5	≤ 4.6	90.7	–	–	–	–	–	–	–
CC(C)CS(=O)(=O)c1ccccc1Oc1ccc(-c2noc(CN3C(=O)N(CCCN4CCCC4)C(C)(C)C3=O)n2)cc1C(F)(F)F [Compound 50b, 3-((3-(4-(2-(isobutylsulfonyl)phenoxy)-3-(trifluoromethyl)phenyl)-1,2,4-oxadiazol-5-yl)methyl)-5,5-dimethyl-1-(3-(pyrrolidin-1-yl)propyl)imidazolidine-2,4-dione]	67.1	29.8	63.8	60.6	23.7	58.2	–	–	–	–	–	–	–
CC(C)(C)c1ccccc1Oc1ccc(-c2noc(CN3C(=O)N(CCC4CCOCC4)C4(CCN(C5CCC5)CC4)C3=O)n2)cc1C(F)(F)F [Compound 7, 3-((3-(4-(2-(tert-butyl)phenoxy)-3-(trifluoromethyl)phenyl)-1,2,4-oxadiazol-5-yl)methyl)-8-cyclobutyl-1-(2-(tetrahydro-2H-pyran-4-yl)ethyl)-1,3,8-triazaspiro[4.5]decane-2,4-dione]	90	0.128	85.6	110	≤ 4.6	105	–	–	–	–	–	–	–
